Source: patent US10125095B2, “Abscisic acid derivative” (NATIONAL UNIVERSITY CORPORATION SHIZUOKA UNIVERSITY, priority 2014, dated 2018)

Assays:
[1] = system: seeds of thale cress (Arabidopsis thaliana, Col-0); experiment: Thale cress seed germination test; format: in vivo
Experimental: Seeds of thale cress (Arabidopsis thaliana, Col-0) were immersed in 500 μL of an aqueous solution of 70% ethanol for 30 minutes, subsequently in 500 μL of a 100% ethanol solution for 1 minute, washed five times in 1 mL of distilled water, then immersed in distilled water and, in a dark place, vernalized at 4° C. for 3 days. A solution of the sample in methanol was put in a 1.5 mL-microtube, and methanol was removed therefrom under reduced pressure. An aqueous solution of 0.5% agar (containing ½ MS medium inorganic salts) at 70° C. was added thereto and stirred, and subsequently the obtained mixture was placed in a 96-well plate to prepare the medium containing the sample. All samples were prepared so as to have a concentration of 3 μM of the compound in Examples 1 to 9 and Comparative Example 1. Further, when ABA is applied, the ABA concentration was adjusted to 0.3 μM. 20 to 30 vernalized seeds of thale cress were planted in each well and cultured at 22° C. under continuous light to monitor the number of seeds germinated over time. The germination rate was calculated by the following formula (1). Note that those cultured in medium prepared using methanol in the same manner were used as controls. […] Germination rate (%)=Number of seeds germinated/Number of seeds planted×100 (1)
The same test was carried out as in Test Example 1 with the concentrations of the compound of Example 1 for treatment varying from 0.3 μM to 30 μM.
Similarly, the same test was carried out with the concentrations of the compound of Example 2 for treatment varying from 0.3 μM to 30 μM.
The same test was carried out as in Test Example 2 with the concentrations of the compounds for treatment varying from 0.3 μM to 3 μM to compare the recovery effects on seed germination rate of the compound of Example 1 and the compound of Comparative Example 1.

PYR1 = biological target: T1, PYR1 (Arabidopsis thaliana, UniProt O49686); experiment: Protein dephosphorylation enzyme activity test, PYR1; format: biochemical, thale cress; conditions: control = 100%
T1 construct: 6xHis (N); made in house; host or cells: Escherichia coli BL21-codonplus(DE3)-RIPL (PYL); BL21(DE3)pLysS (HAB1)
T1 sequence (O49686 1-191): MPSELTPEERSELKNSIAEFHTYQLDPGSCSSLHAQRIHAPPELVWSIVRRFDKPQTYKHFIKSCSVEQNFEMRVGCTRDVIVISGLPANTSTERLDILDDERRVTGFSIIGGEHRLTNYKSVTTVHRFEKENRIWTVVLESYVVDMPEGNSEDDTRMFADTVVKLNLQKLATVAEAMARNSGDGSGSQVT
Experimental: A plasmid (pGex-2T-GST-HAB1 or pET28-6×His-PYL) encoded with PYR/PYL/RCAR proteins (PYL, abscisic acid receptor) or protein dephosphorylation enzyme HAB1 of thale cress was transformed to Escherichia coli (HAB1:BL21(DE3)pLysS, PYL:BL21-codonplus(DE3)-RIPL). Isopropyl-β-thiogalactopyranoside was added to the culture broth, which had been subjected to pre-culture (30° C., 180 rpm, 15 hours) and main culture (30° C., 180 rpm, 4 hours), and the protein-expressed (16° C., 150 rpm, 18 hours) crude enzyme solution was purified using FPLC thereby preparing the recombined PYL (PYR1, PYL1-6, PYL8-10) and HAB1. β-Mercaptoethanol, a manganese chloride aqueous solution, HAB1, PYL, a solution of the sample in dimethylsulfoxide and ultrapure water were sequentially added to a 96-well plate, allowed to stand at 22° C. for 30 minutes. Subsequently p-nitrophenylphosphate, which is the artificial substrate of HAB1, was added thereto to start the reaction, and the plate was placed in a microplate reader (TECAN, Infinite™ N200 NanoQuant). The absorbance at 405 nm due to p-nitrophenol, which is the hydrolysate of p-nitrophenylphosphate, was measured 3 minutes later from the reaction initiation, and HAB1 activity was calculated by the following formula (2). Note that the fraction to which only dimethylsulfoxide was added was considered to be the control and the activity thereof was defined as 100%. […] HAB1 specific activity (%)=Absorbance when sample was added/Absorbance of control×100 (2)

recombined PYL5 = biological target: T2, recombined PYL5 (Arabidopsis thaliana, UniProt Q9FLB1); experiment: Bonding affinity measurement using an isothermal titration calorimeter; format: binding, thale cress; conditions: ITC, 20° C., sodium phosphate buffer
T2 construct: 6xHis (N); made in house; host or cells: Escherichia coli BL21-codonplus(DE3)-RIPL
T2 sequence (Q9FLB1 1-203): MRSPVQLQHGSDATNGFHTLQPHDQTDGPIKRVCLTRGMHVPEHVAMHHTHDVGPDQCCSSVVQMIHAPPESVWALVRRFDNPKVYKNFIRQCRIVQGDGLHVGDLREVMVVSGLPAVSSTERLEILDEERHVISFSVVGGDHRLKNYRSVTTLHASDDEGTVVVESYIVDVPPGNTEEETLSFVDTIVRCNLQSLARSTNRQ
Experimental: A sodium phosphate buffer solution of a recombined PYL5 was prepared in the same procedure as in Test Example 5, and put in a reaction cell of an isothermal titration calorimeter (GE Healthcare, MicroCal iTC200), and a sodium phosphate buffer solution of the compound of Example 1 was put in the syringe. Then, the calorimeter was set to 20° C. and the measurement was carded out. The same measurement as above was also carried out for the compounds of Examples 7 to 9.

[2] = 3 μM compound co-applied with 0.3 μM ABA

Row | Structure (SMILES) | Germination rate (%) 24 Hours later [1, 2] [%] | Germination rate (%) 36 Hours later [1, 2] [%] | Germination rate (%) 48 Hours later [1, 2] [%] | Germination rate (%) 60 Hours later [1, 2] [%] | Germination rate (%) 24 Hours later ([1]; compound alone, 3 μM) [%] | Germination rate (%) 36 Hours later ([1]; compound alone, 3 μM) [%] | Germination rate (%) 48 Hours later ([1]; compound alone, 3 μM) [%] | Germination rate (%) 60 Hours later ([1]; compound alone, 3 μM) [%] | HAB1 Specific activity (%) PYR1 (PYR1; ABA + compound) [%] | HAB1 Specific activity (%) PYR1 (PYR1; sample alone) [%] | Kd (recombined PYL5) [nM] | ΔG (recombined PYL5) [kcal/mol] | ΔH (recombined PYL5) [kcal/mol] | −TΔS (recombined PYL5) [kcal/mol]
1 | CC1=C[C@@H](OCC#Cc2ccc(S(F)(F)(F)(F)F)cc2)CC(C)(C)[C@@]1(O)/C=C/C(C)=C\C(=O)O [Example 8] | 0 | 0 | 23 | 89 | 0 | 60 | 100 | 100 | 62.9 | 105 | 180 ± 10 | -9.0 ± 0.1 | -4.9 ± 0.1 | -4.1
2 | C#CCO[C@@H]1C=C(C)[C@](O)(/C=C/C(C)=C\C(=O)O)C(C)(C)C1 [Example 3, (2Z,4E)-5-((1S,4S)-1-hydroxy-2,6,6-trimethyl-4-(prop-2-yn-1-yloxy)cyclohex-2-en-1-yl)-3-methylpenta-2,4-dienoic acid] | 0 | 6.9 | 20.7 | 48.3 | 0 | 13.3 | 60 | 71.1 | – | – | – | – | – | –
3 | CC(=O)c1ccc(C#CCO[C@@H]2C=C(C)[C@](O)(/C=C/C(C)=C\C(=O)O)C(C)(C)C2)cc1 [Example 6, (2Z,4E)-5-((1S,4S)-1-hydroxy-2,6,6-trimethyl-4-((3-(4-acetyl)phenylprop-2-yn-1-yl)oxy)cyclohex-2-en-1-yl)-3-methylpenta-2,4-dienoic acid] | 7 | 28 | 52 | 72 | 0 | 17 | 75 | 92 | 41.5 | 87.9 | – | – | – | –
4 | CC1=C[C@@H](OCCCc2ccccc2)CC(C)(C)[C@@]1(O)/C=C/C(C)=C\C(=O)O [Example 9] | 0 | 60 | 100 | 100 | 1 | 88 | 100 | 100 | 32.1 | 87.8 | 360 ± 70 | -8.6 ± 0.1 | -6.7 ± 0.1 | -2.0
5 | COc1ccc(C#CCO[C@@H]2C=C(C)[C@](O)(/C=C/C(C)=C\C(=O)O)C(C)(C)C2)cc1 [Example 5, (2Z,4E)-5-((1S,4S)-1-hydroxy-2,6,6-trimethyl-4-((3-(4-methoxy)phenylprop-2-yn-1-yl)oxy)cyclohex-2-en-1-yl)-3-methylpenta-2,4-dienoic acid] | 0 | 30 | 67 | 100 | 5 | 37 | 79 | 95 | 50.5 | 92.3 | – | – | – | –
6 | CC1=C[C@@H](OCC#Cc2ccc(C(F)(F)F)cc2)CC(C)(C)[C@@]1(O)/C=C/C(C)=C\C(=O)O [Example 4, (2Z,4E)-5-((1S,4S)-1-hydroxy-2,6,6-trimethyl-4-((3-(4-trifluoromethyl)phenylprop-2-yn-1-yl)oxy)cyclohex-2-en-1-yl)-3-methylpenta-2,4-dienoic acid] | 0 | 29 | 58 | 100 | 8 | 33 | 75 | 92 | 36.7 | 55.4 | – | – | – | –
